Legend:
ECHCG [1] = assay: Herbicidal pre-emergence action - Part I; assay type: in vivo, Echinochloa crus-galli; conditions: visual grading after ca. 3 weeks vs untreated controls
Description: (§1) Seeds of mono- and dicotyledonous weed plants were sown in plastic pots (double sowings with one species of mono- and one species of dicotyledonous weed plants per pot), in sandy loam, and covered with soil. The compounds according to the invention, formulated in the form of wettable powders (WP) or as emulsifiable concentrates (EC), were applied to the surface of the covering soil as aqueous suspension or emulsion, with the addition of 0.5% of an additive, at an application rate of 600 1 of water per hectare (converted). Following treatment, the pots were placed in a greenhouse and kept under optimum growth conditions for the test plants. The visual grading of the damage to the test plants was carried out after ca. 3 weeks in comparison to untreated controls (herbicidaleffectinpercent(%):100%effect=plantshavediedoff,0%effect=ascontrolplants). [formula]
(§2) Tables A1 to A12, below, show the effects of selected compounds of the general formula (I) according to table 1 on various harmful plants and an application rate corresponding to 1280 g/ha or below obtained by the experimental procedure mentioned above. Table A1: pre-emergence activity at 1280g/ha against ABUTH in %

LOLRI = assay: Herbicidal pre-emergence action - Part I; assay type: in vivo, Lolium rigidum; conditions: 1280 g/ha, visual grading after ca. 3 weeks vs untreated controls
Description: as §1, §2

MATIN [2] = assay: Herbicidal pre-emergence action - Part I; assay type: in vivo, Matricaria inodora; conditions: 1280 g/ha, visual grading after ca. 3 weeks vs untreated controls
Description: as §1, §2

SETVI [3] = assay: Herbicidal pre-emergence action - Part I; assay type: in vivo, Setaria viridis; conditions: visual grading after ca. 3 weeks vs untreated controls
Description: as §1, §2

STEME [4] = assay: Herbicidal pre-emergence action - Part I; assay type: in vivo, Stellaria media; conditions: visual grading after ca. 3 weeks vs untreated controls
Description: as §1, §2

POAAN [5] = assay: Herbicidal pre-emergence action - Part I; assay type: in vivo, Poa annua; conditions: visual grading after ca. 3 weeks vs untreated controls
Description: as §1, §2

AMARE [6] = assay: Herbicidal pre-emergence action - Part I; assay type: in vivo, Amaranthus retroflexus; conditions: visual grading after ca. 3 weeks vs untreated controls
Description: as §1, §2

KCHSC [7] = assay: Herbicidal pre-emergence action - Part I; assay type: in vivo, Kochia scoparia; conditions: Table A10a, 1280 g/ha, visual grading after ca. 3 weeks vs untreated controls
Description: as §1, §2

DIGSA = assay: Herbicidal pre-emergence action - Part I; assay type: in vivo, Digitaria sanguinalis; conditions: visual grading after ca. 3 weeks vs untreated controls
Description: as §1, §2

ECHCG [8] = assay: Herbicidal post-emergence action - Part I; assay type: in vivo, Echinochloa crus-galli; conditions: one-leaf stage, rated visually after about 3 weeks vs untreated controls
Protocol: (§3) Seeds of mono- and dicotyledonous weed plants were placed in plastic pots in sandy loam soil (doubly sown with in each case one species of mono- or dicotyledonous weed plants per pot), covered with soil and cultivated in a greenhouse under controlled growth conditions. 2 to 3 weeks after sowing, the test plants were treated at the one-leaf stage. The compounds of the invention, formulated in the form of wettable powders (WP) or as emulsion concentrates (EC), were applied onto the green parts of the plants as aqueous suspension or emulsion with addition of 0.5% additive at a water application rate of 600 liters per hectare (converted). After the test plants had been kept in the greenhouse under optimum growth conditions for about 3 weeks, the activity of the preparations was rated visually in comparison to untreated controls. For example, 100% activity = the plants have died, 0% activity = like control plants. Tables B1 to B12, below, show the effects of selected compounds of the general formula (I) according to table 1 on various harmful plants and an application rate corresponding to 1280 g/ha or below obtained by the experimental procedure mentioned above. Table B1a: post-emergence activity at 1280g/ha against ABUTH in %

SETVI [9] = assay: Herbicidal post-emergence action - Part I; assay type: in vivo, Setaria viridis; conditions: 1280 g/ha, one-leaf stage, rated visually after about 3 weeks vs untreated controls
Protocol: as §3

POAAN [10] = assay: Herbicidal post-emergence action - Part I; assay type: in vivo, Poa annua; conditions: 1280 g/ha, one-leaf stage, rated visually after about 3 weeks vs untreated controls
Protocol: as §3

AMARE [11] = assay: Herbicidal post-emergence action - Part I; assay type: in vivo, Amaranthus retroflexus; conditions: 1280 g/ha, one-leaf stage, rated visually after about 3 weeks vs untreated controls
Protocol: as §3

KCHSC [12] = assay: Herbicidal post-emergence action - Part I; assay type: in vivo, Kochia scoparia; conditions: 1280 g/ha, one-leaf stage, rated visually after about 3 weeks vs untreated controls
Protocol: as §3

VERPE [13] = assay: Herbicidal post-emergence action - Part I; assay type: in vivo, Veronica persica; conditions: 1280 g/ha, one-leaf stage, rated visually after about 3 weeks vs untreated controls
Protocol: as §3

STEME [14] = assay: Herbicidal post-emergence action - Part I; assay type: in vivo, Stellaria media; conditions: one-leaf stage, rated visually after about 3 weeks vs untreated controls
Protocol: as §3

ABUTH = assay: Herbicidal post-emergence action - Part II; assay type: in vivo, Abutilon theophrasti
Description: (§4) Seeds of mono- and dicotyledonous weed plants and crop plants were sown, in plastic or organic planting pots, in sandy loam, covered with soil and grown in a greenhouse under controlled growth conditions. 2 to 3 weeks after sowing, the test plants were sprayed in the single-leaf stage. The compounds according to the invention, formulated in form of wettable powders (WP) or as emulsifiable concentrates (EC), were sprayed onto the green plant parts as aqueous suspension or emulsion, with the addition of 0.5% of an additive, at an application rate of 600 1 of water/ha (converted). The test plants were placed in the greenhouse for ca. 3 weeks under optimum growth conditions, and then the effect of the preparations was assessed visually in comparison with untreated controls (herbicidal effect in percent (%): 100% effect = plants have died off, 0% effect = as control plants). Tables E1 to E10 below show the effects of selected compounds of the general formula (I) according to table 1 on various harmful plants and an application rate corresponding to 320 g/ha or below obtained by the experimental procedure mentioned above. Table E1a: post-emergence activity at 5g/ha against ABUTH in %

AMARE [15] = assay: Herbicidal post-emergence action - Part II; assay type: in vivo, Amaranthus retroflexus
Description: as §4

MATIN [16] = assay: Herbicidal post-emergence action - Part II; assay type: in vivo, Matricaria inodora; conditions: 20 g/ha; Table E4b
Description: as §4

PHBPU = assay: Herbicidal post-emergence action - Part II; assay type: in vivo, Pharbitis purpurea
Description: as §4

POLCO = assay: Herbicidal post-emergence action - Part II; assay type: in vivo, Polygonum convolvulus; conditions: 20 g/ha; Table E6
Description: as §4

VERPE [17] = assay: Herbicidal post-emergence action - Part II; assay type: in vivo, Veronica persica; conditions: 20 g/ha; Table E8b
Description: as §4

VIOTR = assay: Herbicidal post-emergence action - Part II; assay type: in vivo, Viola tricolor; conditions: 20 g/ha; Table E9b
Description: as §4

ZEAMX = assay: Post-emergence effects on crop plants; assay type: in vivo, Zea mays; conditions: crop plant
Description: as §4, with “F1” for “E1”, “F5” for “E10”, “crop” for “harmful”, “[…]:” for “E1a:”, “ZEAMX” for “ABUTH”

TRZAS = assay: Post-emergence effects on crop plants; assay type: in vivo, Triticum aestivum; conditions: crop plant
Description: as §4, with “F1” for “E1”, “F5” for “E10”, “crop” for “harmful”, “[…]:” for “E1a:”, “ZEAMX” for “ABUTH”

SETVI [18] = assay: Herbicidal post-emergence action - Part II; assay type: in vivo, Setaria viridis; conditions: 20 g/ha; Table E7b
Description: as §4

SMILES	pre-emergence activity at 1280g/ha against ECHCG in % (ECHCG [1]) [%]	pre-emergence activity at 1280g/ha against LOLRI in % (LOLRI) [%]	pre-emergence activity at 1280g/ha against MATIN in % (MATIN [2]) [%]	pre-emergence activity at 1280g/ha and against SETVI in % (SETVI [3]) [%]	pre-emergence activity at 320g/ha against STEME in % (STEME [4]) [%]	pre-emergence activity at 1280g/ha against STEME in % (STEME [4]) [%]	pre-emergence activity at 320g/ha and against POAAN in % (POAAN [5]) [%]	pre-emergence activity at 1280g/ha and against POAAN in % (POAAN [5]) [%]	pre-emergence activity at 1280g/ha against AMARE in % (AMARE [6]) [%]	pre-emergence activity at 1280g/ha against KCHSC in % (KCHSC [7]) [%]	pre-emergence activity at 1280g/ha against DIGSA in % (DIGSA) [%]	post-emergence activity at 1280g/ha against ECHCG in % (ECHCG [8]) [%]	post-emergence activity at 1280g/ha against POAAN in % (POAAN [10]) [%]	post-emergence activity at 1280g/ha against AMARE in % (AMARE [11]) [%]	post-emergence activity at 1280g/ha against KCHSC in % (KCHSC [12]) [%]	post-emergence activity at 1280g/ha against VERPE in % (VERPE [13]) [%]	post-emergence activity against ABUTH (ABUTH; 20 g/ha, Table E1b) [%]	post-emergence activity against AMARE (AMARE [15]; 5 g/ha, Table E2a) [%]	post-emergence activity against AMARE (AMARE [15]; 20 g/ha, Table E2b) [%]	post-emergence activity against MATIN (MATIN [16]) [%]	also measured
Cc1ccsc1C1=NOC2(CCCN(Cc3cccc(F)c3F)C2=O)C1 (racemic) [Compound I-3, 7-(2,3-Difluorobenzyl)-3-(3-methyl-2-thienyl)-1-oxa-2,7-diazaspiro[4.5]-dec-2-en-6-one]	100	100	90	100	90	90	100	100	90	90	100	90	90	90	90	90					pre-emergence activity at 320g/ha against ECHCG in % (ECHCG [1]; 320 g/ha): 100%; pre-emergence activity at 320g/ha and against SETVI in % (SETVI [3]; 320 g/ha): 100%; pre-emergence activity at 320g/ha against DIGSA in % (DIGSA; 320 g/ha): 90%; post-emergence activity at 320g/ha against ECHCG in % (ECHCG [8]; 320 g/ha): 90%; post-emergence activity at 1280g/ha against SETVI in % (SETVI [9]): 90%
Cc1ccccc1CN1CCCC2(CC(c3sccc3C)=NO2)C1=O (racemic) [Compound I-4, 7-(2-Methylbenzyl)-3-(3-methyl-2-thienyl)-1-oxa-2,7-diazaspiro[4.5]dec-2-en-6-one]				90			100	100				90	90	90		90					
Cc1ccsc1C1=NOC2(CCN(Cc3ccccc3F)C2=O)C1 (racemic) [Compound I-17, 7-(2-Fluorobenzyl)-3-(3-methyl-2-thienyl)-1-oxa-2,7-diazaspiro[4.4]non-2-en-6-one]	90	100	90	100	90	100		100	90						90						pre-emergence activity at 80g/ha against STEME in % (STEME [4]; 80 g/ha): 90%
O=C1N(Cc2c(F)cccc2F)CCC12CC(c1ccccc1F)=NO2 (racemic) [Compound I-27, 7-(2,6-Difluorobenzyl)-3-(2-fluorophenyl)-1-oxa-2,7-diazaspiro[4.4]non-2-en-6-one]	100		90	90	90	90	100	100	90	90	90			90							pre-emergence activity at 320g/ha against AMARE in % (AMARE [6]; 320 g/ha): 90%; post-emergence activity at 320g/ha against STEME in % (STEME [14]; 320 g/ha): 90%; post-emergence activity at 1280g/ha against STEME in % (STEME [14]; 1280 g/ha): 90%
COC(=O)CN1CCCC2(CC(c3cc(-n4c(=O)cc(C(F)(F)F)n(C)c4=O)c(F)cc3Cl)=NO2)C1=O (racemic) [Compound I-57]																	100	100	100	100	post-emergence activity against PHBPU (PHBPU; 5 g/ha, Table E5a): 100%; post-emergence activity against PHBPU (PHBPU; 20 g/ha, Table E5b): 100%; post-emergence activity against POLCO (POLCO): 100%; post-emergence activity against VERPE (VERPE [17]): 100%; post-emergence activity against VIOTR (VIOTR): 100%; post-emergence activity against ZEAMX (ZEAMX; 5 g/ha, Table F1a): 20%; post-emergence activity against ZEAMX (ZEAMX; 20 g/ha, Table F1b): 20%; post-emergence activity against TRZAS (TRZAS; 5 g/ha, Table F2a): 20%; post-emergence activity against TRZAS (TRZAS; 20 g/ha, Table F2b): 20%
Cn1c(C(F)(F)F)cc(=O)n(-c2cc(C3=NOC4(CCCNC4=O)C3)c(Cl)cc2F)c1=O (racemic) [Compound I-67]																	100	100	100	100	post-emergence activity against ABUTH (ABUTH; 5 g/ha, Table E1a): 80%; post-emergence activity against PHBPU (PHBPU; 5 g/ha, Table E5a): 100%; post-emergence activity against PHBPU (PHBPU; 20 g/ha, Table E5b): 100%; post-emergence activity against SETVI (SETVI [18]): 80%; post-emergence activity against VERPE (VERPE [17]): 80%; post-emergence activity against VIOTR (VIOTR): 100%; post-emergence activity against ZEAMX (ZEAMX; 5 g/ha, Table F1a): 20%; post-emergence activity against TRZAS (TRZAS; 5 g/ha, Table F2a): 20%
